{"source": "patent US12077503B2", "about": "“Substituted cyclic amides and their use as herbicides” (FMC CORPORATION, priority 2015, dated 2024)", "format_in_all_cases": "in vivo", "key": {"[1]": {"tested_on": "pigweed (Amaranthus retroflexus)", "assay": "Test A preemergence", "excerpt": "(§1) Seeds of plant species selected from barnyardgrass (Echinochloa crus-galli), Kochia (Kochia scoparia), ragweed (common ragweed, Ambrosia elatior), ryegrass, Italian (Italian ryegrass, Lolium multiflorum), crabgrass, large (Digitaria sanguinalis), giant foxtail (Setaria faberii), green foxtail (Setaria viridis), morningglory (Ipomoea spp.), pigweed (Amaranthus retroflexus), velvetleaf (Abutilon theophrasti), wheat (Triticum aestivum), and corn (Zea mays) were planted into a blend of loam soil and sand and treated preemergence with a directed soil spray using test chemicals formulated in anon-phytotoxic solvent mixture which included a surfactant.\n(§2) At the same time, plants selected from these crop and weed species and also blackgrass (Alopecurus myosuroides), and Galium (catchweed bedstraw, Galium aparine) were planted in pots containing the same blend of loam soil and sand and treated with postemergence applications of test chemicals formulated in the same manner. Plants ranged in height from 2 to 10 cm and were in the one- to two-leaf stage for the postemergence treatment. Treated plants and untreated controls were maintained in a greenhouse for approximately 10 d, after which time all treated plants were compared to untreated controls and visually evaluated for injury. Plant response ratings, summarized in Table A, are based on a 0 to 100 scale where 0 is no effect and 100 is complete control. A dash (-) response means no test result."}, "[2]": {"tested_on": "ragweed (common ragweed, Ambrosia elatior)", "assay": "Test A preemergence", "excerpt": "as §1, §2"}, "[3]": {"tested_on": "ryegrass, Italian (Italian ryegrass, Lolium multiflorum)", "assay": "Test A preemergence", "excerpt": "as §1, §2"}, "[4]": {"tested_on": "barnyardgrass (Echinochloa crus-galli)", "assay": "Test A preemergence", "excerpt": "as §1, §2"}, "[5]": {"tested_on": "giant foxtail (Setaria faberii)", "assay": "Test A preemergence", "excerpt": "as §1, §2"}, "[6]": {"tested_on": "Kochia (Kochia scoparia)", "assay": "Test A preemergence", "excerpt": "as §1, §2"}, "[7]": {"tested_on": "pigweed (Amaranthus retroflexus)", "assay": "Test A postemergence", "excerpt": "as §1, §2"}, "[8]": {"tested_on": "ragweed (common ragweed, Ambrosia elatior)", "assay": "Test A postemergence", "excerpt": "as §1, §2"}, "[9]": {"tested_on": "ryegrass, Italian (Italian ryegrass, Lolium multiflorum)", "assay": "Test A postemergence", "excerpt": "as §1, §2"}, "[10]": {"tested_on": "corn (Zea mays)", "assay": "Test A postemergence", "excerpt": "as §1, §2"}, "[11]": {"tested_on": "barnyardgrass (Echinochloa crus-galli)", "assay": "Test A postemergence", "excerpt": "as §1, §2"}, "[12]": {"tested_on": "blackgrass (Alopecurus myosuroides)", "assay": "Test A postemergence", "excerpt": "as §1, §2"}, "[13]": {"tested_on": "giant foxtail (Setaria faberii)", "assay": "Test A postemergence", "excerpt": "as §1, §2"}, "[14]": {"tested_on": "wheat (Triticum aestivum)", "assay": "Test A postemergence", "excerpt": "as §1, §2"}, "[15]": {"tested_on": "Galium (catchweed bedstraw, Galium aparine)", "assay": "Test A postemergence", "excerpt": "as §1, §2"}, "[16]": {"tested_on": "Kochia (Kochia scoparia)", "assay": "Test A postemergence", "excerpt": "as §1, §2"}, "[17]": {"tested_on": "ducksalad (Heteranthera limosa)", "assay": "Test B flooded paddy test", "settings": "Flood, 250 g ai/ha; 0 to 100 scale where 0 is no effect and 100 is complete control; 13 to 15 d", "procedure,_shortened": "(§3)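 Plants at 2-leaf stage flooded to 3 cm above soil, with compounds applied directly to paddy water and that depth maintained. Plants kept in greenhouse 13–15 d. Visual rating versus controls on a 0 (no effect) to 100 (complete control) scale.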"}, "[18]": {"tested_on": "rice (Oryra sativa)", "assay": "Test B flooded paddy test", "settings": "Flood, 250 g ai/ha; 0 to 100 scale where 0 is no effect and 100 is complete control; 13 to 15 d", "procedure,_shortened": "as §3"}, "[19]": {"tested_on": "sedge, umbrella (small-flower umbrella sedge, Cyperus difformis)", "assay": "Test B flooded paddy test", "settings": "Flood, 250 g ai/ha; 0 to 100 scale where 0 is no effect and 100 is complete control; 13 to 15 d", "procedure,_shortened": "as §3"}, "[20]": {"tested_on": "barnyardgrass (Echinochloa crus-galli)", "assay": "Test B flooded paddy test", "settings": "Flood, 250 g ai/ha; 0 to 100 scale where 0 is no effect and 100 is complete control; 13 to 15 d", "procedure,_shortened": "as §3"}, "[21]": {"settings": "125 g ai/ha, Preemergence, visual injury after approximately 10 d, 0 to 100 scale where 0 is no effect and 100 is complete control"}, "[22]": {"settings": "500 g ai/ha, preemergence, 0 to 100 scale, 0 = no effect, 100 = complete control"}, "[23]": {"settings": "125 g ai/ha, postemergence, visual rating after approx. 10 d, 0 to 100 scale (0 no effect, 100 complete control)"}, "[24]": {"settings": "Postemergence, 500 g ai/ha, 0 to 100 scale where 0 is no effect and 100 is complete control"}, "[25]": {"settings": "Preemergence, 500 g ai/ha, visual injury approx. 10 d"}}, "data": [{"compound": "O=C1NCC(c2ccc(F)cc2F)C1C(=O)Nc1ccccc1F", "note": "(centres unmarked) [Compound 620]", "values": [{"measurement": "Plant response rating, Pigweed", "setting": "[1]; [21]", "result": 0}, {"measurement": "Plant response rating, Pigweed", "setting": "[1]; [22]", "result": 0}, {"measurement": "Plant response rating, Ragweed", "setting": "[2]; [21]", "result": 0}, {"measurement": "Plant response rating, Ragweed", "setting": "[2]; [22]", "result": 0}, {"measurement": "Plant response rating, Ryegrass, Italian", "setting": "[3]; [21]", "result": 0}, {"measurement": "Plant response rating, Ryegrass, Italian", "setting": "[3]; [22]", "result": 0}, {"measurement": "Plant response rating, Barnyardgrass", "setting": "[4]; [21]", "result": 70}, {"measurement": "Plant response rating, Barnyardgrass", "setting": "[4]; [22]", "result": 80}, {"measurement": "Plant response rating, Foxtail, Giant", "setting": "[5]; [21]", "result": 80}, {"measurement": "Plant response rating, Foxtail, Giant", "setting": "[5]; [22]", "result": 90}, {"measurement": "Plant response rating, Kochia", "setting": "[6]; [21]", "result": 0}, {"measurement": "Plant response rating, Kochia", "setting": "[6]; [22]", "result": 20}, {"measurement": "Plant response rating, Pigweed", "setting": "[7]; [23]", "result": 0}, {"measurement": "Plant response rating, Pigweed", "setting": "[7]; [24]", "result": 0}, {"measurement": "Plant response rating, Ragweed", "setting": "[8]; [23]", "result": 0}, {"measurement": "Plant response rating, Ragweed", "setting": "[8]; [24]", "result": 0}, {"measurement": "Plant response rating, Ryegrass, Italian", "setting": "[9]; [23]", "result": 0}, {"measurement": "Plant response rating, Ryegrass, Italian", "setting": "[9]; [24]", "result": 0}, {"measurement": "Plant response rating, Corn", "setting": "[10]; [23]", "result": 0}, {"measurement": "Plant response rating, Corn", "setting": "[10]; [24]", "result": 0}, {"measurement": "Plant response rating, Barnyardgrass", "setting": "[11]; [23]", "result": 20}, {"measurement": "Plant response rating, Barnyardgrass", "setting": "[11]; [24]", "result": 60}, {"measurement": "Plant response rating, Blackgrass", "setting": "[12]; [23]", "result": 0}, {"measurement": "Plant response rating, Blackgrass", "setting": "[12]; [24]", "result": 0}, {"measurement": "Plant response rating, Foxtail, Giant", "setting": "[13]; [23]", "result": 30}, {"measurement": "Plant response rating, Foxtail, Giant", "setting": "[13]; [24]", "result": 50}, {"measurement": "Plant response rating, Wheat", "setting": "[14]; [23]", "result": 0}, {"measurement": "Plant response rating, Wheat", "setting": "[14]; [24]", "result": 0}, {"measurement": "Plant response rating, Galium", "setting": "[15]; [23]", "result": 0}, {"measurement": "Plant response rating, Galium", "setting": "[15]; [24]", "result": 20}, {"measurement": "Plant response rating, Kochia", "setting": "[16]; [23]", "result": 0}, {"measurement": "Plant response rating, Kochia", "setting": "[16]; [24]", "result": 0}, {"measurement": "Plant response rating, Ducksalad", "setting": "[17]", "result": 65}, {"measurement": "Plant response rating, Rice", "setting": "[18]", "result": 0}, {"measurement": "Plant response rating, Sedge, Umbrella", "setting": "[19]", "result": 0}, {"measurement": "Plant response rating, Barnyardgrass", "setting": "[20]", "result": 10}]}, {"compound": "O=C1NCC(c2cccc(C(F)(F)F)c2F)C1C(=O)Nc1ccccc1F", "note": "(centres unmarked) [Compound 590]", "values": [{"measurement": "Plant response rating, Pigweed", "setting": "[1]; [21]", "result": 0}, {"measurement": "Pigweed plant response rating (0 to 100 scale, 0 is no effect, 100 is complete control)", "setting": "[1]; [25]", "result": 0}, {"measurement": "Plant response rating, Ragweed", "setting": "[2]; [21]", "result": 0}, {"measurement": "Plant response rating, Ryegrass, Italian", "setting": "[3]; [21]", "result": 0}, {"measurement": "Ryegrass, Italian plant response rating (0 to 100 scale, 0 is no effect, 100 is complete control)", "setting": "[3]; [25]", "result": 30}, {"measurement": "Plant response rating, Barnyardgrass", "setting": "[4]; [21]", "result": 90}, {"measurement": "Barnyardgrass plant response rating (0 to 100 scale, 0 is no effect, 100 is complete control)", "setting": "[4]; [25]", "result": 90}, {"measurement": "Plant response rating, Foxtail, Giant", "setting": "[5]; [21]", "result": 90}, {"measurement": "Foxtail, Giant plant response rating (0 to 100 scale, 0 is no effect, 100 is complete control)", "setting": "[5]; [25]", "result": 90}, {"measurement": "Plant response rating, Kochia", "setting": "[6]; [21]", "result": 0}, {"measurement": "Kochia plant response rating (0 to 100 scale, 0 is no effect, 100 is complete control)", "setting": "[6]; [25]", "result": 20}, {"measurement": "Plant response rating, Pigweed", "setting": "[7]; [23]", "result": 0}, {"measurement": "Plant response rating, Pigweed", "setting": "[7]; [24]", "result": 0}, {"measurement": "Plant response rating, Ragweed", "setting": "[8]; [23]", "result": 0}, {"measurement": "Plant response rating, Ragweed", "setting": "[8]; [24]", "result": 0}, {"measurement": "Plant response rating, Ryegrass, Italian", "setting": "[9]; [23]", "result": 30}, {"measurement": "Plant response rating, Ryegrass, Italian", "setting": "[9]; [24]", "result": 30}, {"measurement": "Plant response rating, Corn", "setting": "[10]; [23]", "result": 50}, {"measurement": "Plant response rating, Corn", "setting": "[10]; [24]", "result": 70}, {"measurement": "Plant response rating, Barnyardgrass", "setting": "[11]; [23]", "result": 90}, {"measurement": "Plant response rating, Barnyardgrass", "setting": "[11]; [24]", "result": 90}, {"measurement": "Plant response rating, Blackgrass", "setting": "[12]; [23]", "result": 50}, {"measurement": "Plant response rating, Blackgrass", "setting": "[12]; [24]", "result": 70}, {"measurement": "Plant response rating, Foxtail, Giant", "setting": "[13]; [23]", "result": 90}, {"measurement": "Plant response rating, Foxtail, Giant", "setting": "[13]; [24]", "result": 90}, {"measurement": "Plant response rating, Wheat", "setting": "[14]; [23]", "result": 20}, {"measurement": "Plant response rating, Wheat", "setting": "[14]; [24]", "result": 70}, {"measurement": "Plant response rating, Galium", "setting": "[15]; [23]", "result": 20}, {"measurement": "Plant response rating, Galium", "setting": "[15]; [24]", "result": 30}, {"measurement": "Plant response rating, Kochia", "setting": "[16]; [23]", "result": 0}, {"measurement": "Plant response rating, Kochia", "setting": "[16]; [24]", "result": 30}, {"measurement": "Plant response rating, Ducksalad", "setting": "[17]", "result": 90}, {"measurement": "Plant response rating, Rice", "setting": "[18]", "result": 0}, {"measurement": "Plant response rating, Sedge, Umbrella", "setting": "[19]", "result": 0}, {"measurement": "Plant response rating, Barnyardgrass", "setting": "[20]", "result": 60}]}]}
